Assay results reported in patent US10125112B2, “Modulators of the relaxin receptor 1” (The United States of America, as Represented by the …, priority 2012, dated 2018).
Values after ≈ are worked out from the molar mass of the structure shown.

What was measured:
[1] = ATP Cytotoxicity assay (ATPLite) in HEK293-RXFP1 cells; assay type: cell-based; settings: human, inactive = Maximum response less than 30%, read-out: ATP Tox. EC50 (μM, Max. Resp.): EC50
Method: This follow-up assay was conducted to measure the effect of compounds on cell viability by measuring ATP levels (ATPLite™). ATPLite™ is an Adenosine TriPhosphate (ATP) monitoring system based on firefly (Photinus pyralis) luciferase. The level of ATP in a metabolically active cell is a general marker for its viability. ATP levels are often reduced during necrosis or apoptosis. In this assay, the luciferase enzyme catalyzes the conversion of the added substrate D-luciferin to oxyluciferin and light with ATP. Thus, the emitted light is proportional to the ATP concentration. […] After compound incubation, the levels of ATP in each well were measured with the addition of the ATPLite assay reagent.

RXFP2 = target: T1, RXFP2 (Homo sapiens, UniProt Q8WXD0); assay: RXFP2 cAMP assay in HEK293-RXFP2 cells; assay type: cell-based; settings: for Emax: 0.5 h, read-out: RXFP2 AC50 (μM, Max. Resp.): Max. Resp.; for AC50: HEK293-RXFP2 cells, inactive = Maximum response less than 30%, read-out: RXFP2 AC50 (μM, Max. Resp.): AC50
T1 construct: expressed in transfected cells
Method: HEK293 cells stably transfected with RXFP2, the cognate receptor for another relaxin family peptide, insulin-like 3, (HEK293-RXFP2) was used to test compound specificity towards the RXFP1 receptor. For this assay, cells were seeded at 8,000 cells/well in 30 µL/well of media with a MultiDrop Combi dispenser (Thermo Scientific), and allowed to attach overnight at 37° C., 5% CO2. Next, 2 µL/well of 1.6 mM Ro 20-1724 solution in PBS+(DPBS, 1 mM CaCl2, 0.5 mM MgCl2, 0.05% BSA, 0.005% Tween 20) were dispensed using a BioRAPTR FRD dispenser (Beckman Coulter, Brea, Calif.), followed addition of 0.25 μL/well of compound solution in DMSO with CyBi-well dispenser (CyBio, Jena, Germany). The cells were allowed to be stimulated with the compounds for 30 minutes at 37° C., 5% CO2, after which, 8 μL/well of each HTRF detection reagent (diluted according to assay kit directions in HTRF lysis buffer) was dispensed with a BioRAPTR FRD dispenser. The plates were incubated for 30 minute at 37° C., and then the signal was read on a ViewLux plate reader (PerkinElmer, Waltham, Mass.).

PBS solubility = assay type: physicochemical
RXFP1 = target: T2, RXFP1 (Homo sapiens, UniProt Q9HBX9); assay: RXFP1 cAMP assay in HEK293-RXFP1 cells (HTRF); assay type: cell-based; settings: percentage of the maximal receptor activation induced by high concentrations of forskolin; Tables 1-7; read-out: Max Response
T2 construct: expressed in transfected cells
T2 sequence (Q9HBX9 1-757): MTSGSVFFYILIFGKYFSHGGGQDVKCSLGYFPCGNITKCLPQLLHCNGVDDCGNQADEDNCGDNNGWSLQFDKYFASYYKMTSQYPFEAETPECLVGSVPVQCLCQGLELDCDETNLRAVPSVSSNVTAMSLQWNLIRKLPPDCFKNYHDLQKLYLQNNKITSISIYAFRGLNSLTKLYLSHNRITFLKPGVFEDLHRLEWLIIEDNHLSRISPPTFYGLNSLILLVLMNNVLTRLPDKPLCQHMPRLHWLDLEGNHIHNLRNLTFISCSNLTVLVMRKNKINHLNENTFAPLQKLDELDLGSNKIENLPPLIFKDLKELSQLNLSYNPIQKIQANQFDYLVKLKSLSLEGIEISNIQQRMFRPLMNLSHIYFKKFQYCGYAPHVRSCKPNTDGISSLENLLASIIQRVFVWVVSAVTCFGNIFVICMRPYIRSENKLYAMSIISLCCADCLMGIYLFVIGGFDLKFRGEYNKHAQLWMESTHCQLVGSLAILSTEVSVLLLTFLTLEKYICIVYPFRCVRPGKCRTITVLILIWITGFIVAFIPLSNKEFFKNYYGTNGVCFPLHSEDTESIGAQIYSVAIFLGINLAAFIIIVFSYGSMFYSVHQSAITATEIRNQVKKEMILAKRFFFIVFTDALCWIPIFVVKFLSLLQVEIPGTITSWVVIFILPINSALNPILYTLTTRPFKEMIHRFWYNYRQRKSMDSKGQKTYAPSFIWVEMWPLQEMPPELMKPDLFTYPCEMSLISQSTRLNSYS
Method: The RXFP1 receptor couples to the Gs protein, and activation of the receptor results in stimulation of cAMP production. […] The TR-FRET between the K-α-cAMP and cAMP-d2 is disrupted by cAMP in the cell lysates, thus allowing TR-FRET detection in a homogenous format that is suitable for HTS. […] The primary screen was carried out in 1536-well format, however, because of a more robust signal to background ratio, all subsequent follow-up experiments were carried out in 384-well format.
For the primary screen, HEK293-RXFP1 cells were seeded at 2,000 cells/well in 3 μL/well media with a MultiDrop Combi dispenser (Thermo Scientific, Logan, Utah), and allowed to attach overnight at 37° C., 5% CO2. […] The cells were allowed to be stimulated with the compounds for 30 minutes at 37° C., 5% CO2, after which, 1 μL/well of each HTRF detection reagent was dispensed with a BioRAPTR FRD dispenser. The detection reagents were diluted before addition as follows: K-α-cAMP antibody at 1:20 and cAMP-d2 at 1:18 in HTRF lysis buffer (supplied by the assay kit). The plates were incubated for 30 minute at room temperature, and then the signal was read on a ViewLux plate reader (PerkinElmer, Waltham, Mass.).
The assay was run according to the following protocol:
Max Response indicates what the maximal amount of functional activity induced by the compound is, as a percentage of the maximal receptor activation induced by high concentrations of forskolin.

vasopressin receptor 1b = target: T3, vasopressin receptor 1b (Homo sapiens, UniProt P47901); assay: V1b cAMP assay in HEK293-V1b cells; assay type: cell-based; settings: inactive = Maximum response less than 30%
T3 construct: expressed in transfected cells
T3 sequence (P47901 1-424): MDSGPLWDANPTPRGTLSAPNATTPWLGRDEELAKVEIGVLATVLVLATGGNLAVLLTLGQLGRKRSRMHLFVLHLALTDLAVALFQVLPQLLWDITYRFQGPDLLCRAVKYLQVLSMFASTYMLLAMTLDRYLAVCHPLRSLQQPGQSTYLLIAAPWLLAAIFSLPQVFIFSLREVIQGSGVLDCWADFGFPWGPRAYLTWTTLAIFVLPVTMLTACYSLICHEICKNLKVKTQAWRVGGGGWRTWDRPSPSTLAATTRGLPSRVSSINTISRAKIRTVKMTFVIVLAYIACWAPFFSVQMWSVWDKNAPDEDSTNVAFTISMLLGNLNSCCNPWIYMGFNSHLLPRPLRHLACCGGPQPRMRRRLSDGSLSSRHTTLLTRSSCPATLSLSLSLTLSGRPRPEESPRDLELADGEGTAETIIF
Method: HEK293 stably transfected with a nonrelated G protein coupled receptor, vasopressin receptor 1b (HEK293-V1b), were used as an additional counter screen to eliminate compounds that increase cAMP HTRF signal through non-RXFP1 dependent mechanisms. For this assay, cells were seeded at 8,000 cells/well in 30 µL/well media with a MultiDrop Combi dispenser (Thermo Scientific, Logan, Utah), and allowed to attach overnight at 37° C., 5% CO2. Next, 2 μL/well of 1.6 mM Ro 20-1724 solution in PBS+(DPBS, 1 mM CaCl2, 0.5 mM MgCl2, 0.05% BSA, 0.005% Tween 20) was dispensed using a BioRAPTR FRD dispenser (Beckman Coulter, Brea, Calif.), followed by additional of 0.25 μL/well of compound solution in DMSO with CyBi-well dispenser (CyBio, Jena, Germany). The cells were allowed to be stimulated with the compounds for 30 minutes at 37° C., 5% CO2, after which, 8 μL/well of each HTRF detection reagent (diluted according to assay kit directions in HTRF lysis buffer) was dispensed with a BioRAPTR FRD dispenser. The plates were incubated for 30 minute at room temperature, and then the signal was read on a ViewLux plate reader (PerkinElmer, Waltham, Mass.).

cAMP in THP-1 cells = assay: cyclic AMP assay in THP-1 cells; assay type: cell-based; settings: Homo sapiens, THP-1, 0.5 h
Method: This Example illustrates the cyclic AMP assay in THP-1 cells. THP-1 cells were propagated in RPMI-1640 supplemented with 20% FBS, 0.05 mM β-mercaptoethanol, 100 U/mL penicillin and 100 μg/mL streptomycin at 37° C. in 5% CO2. Before assaying for cAMP response, cells were serum starved in RPMI-1640 supplemented with 0.05 mM (3-mercaptoethanol, 100 U/mL penicillin and 100 μg/mL streptomycin at 37° C. in 5% CO2 for 16 hrs. For 384-well format assays, cells were seeded as 30,000 cells/well in 30 μL/well media with a MultiDrop Combi dispenser (Thermo Scientific, Waltham, Mass.). Subsequently, 2 μL/well of 1.6 mM Ro 20-1724 and 160 uM forskolin in PBS+ (DPBS, 1 mM CaCl2, 0.5 mM MgCl2, 0.05% BSA, 0.005% Tween 20) was dispensed using a BioRAPTR FRD dispenser (Beckman Coulter, Brea, Calif.). Immediately after, 0.25 μL/well of compound solutions in DMSO was dispensed with CyBi-well dispenser (CyBio, Jena, Germany). The cells were allowed to be stimulated with compounds for 30 min at 37° C. in 5% CO2, after which, 8 μL/well of each HTRF cAMP HiRange kit (CisBio, Bedford, Mass.) detection reagent was dispensed with a BioRAPTR FRD dispenser. The detection reagents were diluted as such: K-α-cAMP antibody at 1:20 and cAMP-d2 at 1:18 in HTRF lysis buffer (supplied by the assay kit). The plates were incubated for 30 min at room temperature before the signal was read on an Envision plate reader (PerkinElmer, Waltham, Mass.).

T1 sequence (Q8WXD0 whole entry, species assumed): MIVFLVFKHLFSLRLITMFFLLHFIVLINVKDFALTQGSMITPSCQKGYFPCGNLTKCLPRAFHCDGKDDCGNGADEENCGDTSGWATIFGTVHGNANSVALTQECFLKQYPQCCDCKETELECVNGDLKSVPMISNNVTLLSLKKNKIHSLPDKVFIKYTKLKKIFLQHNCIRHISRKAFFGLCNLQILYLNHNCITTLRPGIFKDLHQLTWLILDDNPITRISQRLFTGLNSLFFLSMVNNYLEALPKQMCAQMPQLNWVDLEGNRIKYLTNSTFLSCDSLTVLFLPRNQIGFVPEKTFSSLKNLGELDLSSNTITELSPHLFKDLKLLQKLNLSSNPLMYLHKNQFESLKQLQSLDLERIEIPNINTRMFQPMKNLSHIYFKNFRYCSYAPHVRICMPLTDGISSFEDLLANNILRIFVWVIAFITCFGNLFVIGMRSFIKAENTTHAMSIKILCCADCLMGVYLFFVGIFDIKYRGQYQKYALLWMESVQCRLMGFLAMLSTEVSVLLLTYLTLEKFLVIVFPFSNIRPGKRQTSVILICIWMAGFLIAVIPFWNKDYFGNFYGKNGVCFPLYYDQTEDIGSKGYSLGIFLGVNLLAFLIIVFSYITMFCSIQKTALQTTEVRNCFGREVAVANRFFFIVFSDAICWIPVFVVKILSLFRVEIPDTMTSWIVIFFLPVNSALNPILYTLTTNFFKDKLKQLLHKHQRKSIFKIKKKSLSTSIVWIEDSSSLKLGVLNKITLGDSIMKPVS

SMILES	EC50 at 72 h [1] [µM]	Emax (RXFP2) [%]	AC50 (RXFP2) [µM]	solubility (PBS solubility; aqueous buffer) [µM]	Emax (RXFP1) [%]	PBS Solubility (PBS solubility) [µM]	V1b AC50 (μM, Max. Resp.): AC50 (vasopressin receptor 1b)	EC50 (cAMP in THP-1 cells) [µM]
COc1ccccc1C(=O)Nc1ccccc1C(=O)Nc1cccc(SC(F)(F)F)c1 [Example 158]	3.74	54	3.34	2.9 (≈ 1.29 µg/mL)	99			
CCOc1ccccc1C(=O)Nc1ccccc1C(=O)Nc1cccc(S(=O)(=O)C(F)(F)F)c1 [Example 174, 2-Ethoxy-N-(2-((3-((trifluoromethyl)sulfonyl)phenyl)carbamoyl)phenyl)benzamide]		38	7.47			<1.1	inactive^a	0.362
CCCOc1ccccc1C(=O)Nc1ccccc1C(=O)Nc1cccc(S(=O)(=O)C(F)(F)F)c1 [Example 179]	9.4				98			
